One data set deals with RBP (Homo sapiens, UniProt P02753). The data set can be described thus: Competition binding assay RBP-retinol/HPR by fluorescence quenching. The text has this: Based upon these findings, we sought to further explore the mechanism(s) of retinol reduction during HPR treatment. A tenable hypothesis is that HPR may displace retinol by competing at the retinol binding site on RBP. […] Therefore, one can measure displacement of retinol from the RBP holoprotein by observing decreases in both protein (340 nm) and retinol (470 nm) fluorescence. We performed a competition binding assay using RBP-retinol/HPR concentrations which were similar to those determined from the 14 day trial at 20 mg/kg HPR described above. […] In the control assays, decreases in retinol fluorescence were associated with concomitant increases in protein fluorescence, see FIG. 3a. This effect was determined to be due to temperature effects as the dissociation constant of RBP-retinol increases (decreased affinity) with […] at 37C. […] Increases of HPR beyond equimolar amounts relative to RBP holoprotein (e.g., 2.0 μM HPR to 1.0 μM RBP) will produce a population of RBP which is largely associated with HPR.

A further data set has as its system abca4 null mutant mice. The data set can be described thus: Serum retinol after 28 days of daily HPR (LC/MS, HPLC). The format is in vivo, mouse. Particulars: for effect on serum retinol (in words): ABCA4 null mice. As for the experimental part: ABCA4 null mutant mice were given the indicated dose of HPR in DMSO (i.p.) daily for 28 days (n=4 mice per dosage group). At the end of the study period, blood samples were taken and serum was prepared. Following acetonitrile precipitation of serum proteins, the concentrations of retinol and HPR were determined from the soluble phase by LC/MS (see FIG. 7). Identity of the eluted compounds was confirmed by UV-vis absorption spectroscopy and co-elution of sample peaks with authentic standards.
Analysis of Serum Retinol. Whole blood was collected from tail veins of HPR-treated mice 18 hrs. following the final HPR dose (i.e., at day 28). Serum was obtained from whole blood following centrifugation at 1,500×g, 10 min. Serum proteins were precipitated with the addition of an equivolume of ice-cold acetonitrile and centrifugation (10,000×g, 10 min). An aliquot was removed from the soluble phase and analyzed by HPLC using an Agilent 1100 series capillary liquid chromatograph equipped with a diode-array detector. Chromatography was performed on a Zorbax SB C18 5 μm column (150×0.5 mm) equilibrated with acetonitrile/water/glacial acetic acid (80:18:2, v/v) at a flow rate of 10 μl/min.

In data set [1] the test system is abca4 −/− mice. The data set can be described thus: HPR and retinaldehyde content after 7 days, dark- and light-adapted. To be noted: HPR 10 mg/kg/day. The format is in vivo, mouse. As for the experimental part: The effect of HPR on visual chromophore biosynthesis was examined in a separate study in which a […] of HPR (10 mg/kg/day) was administered to abca4 −/− mice over a 7-day period.

A short description of data set [2]: Steady-state retinoid levels and visual chromophore regeneration after 28 days of HPR. The format is in vivo, mouse. Particulars: abca4 -/- (knockout line; background strain not stated), mouse, RPE tissue, intraperitoneal, HPR 10 mg/kg, read-out: HPR present within RPE tissue. As for the experimental part:
(§1) Both steady-state retinoid levels and rates of visual chromophore regeneration were evaluated in abca4 −/− mice following a 28-day treatment period with 10 mg/kg HPR. Light-adapted levels of all visual cycle retinoids were reduced by ˜50% compared to control animals receiving only DMSO (FIG. 16A). Although HPR was present within RPE tissue (˜10 μM), the rate of rhodopsin regeneration (FIG. 16B) and removal of bleached photoproduct (Figure 16C) were not affected. The calculated time constant for regeneration of visual chromophore was nearly identical for both DMSO- and HPR-treated mice (0.37 h time constant to fully regenerate visual chromophore, FIG. 16D).
(§2) Panels D-F of FIG. 9 are electrophysiological measurements of rod function (panel D), rod and cone function (panel E) and recovery from photobleaching (panel F).

In data set [3] the test system is abca4 −/− mice. The data set is described as above. The data set is classed as in vivo, mouse. As for the experimental part:
as §1, §2

In data set [4] the test system is abca4 −/− mice. In words: A2E levels after withdrawal of chronic treatment. Particulars: chronic treatment (HPR 10 mg/kg i.p.) stopped after 28 days; measured 12, 28 and 42 days later. The data set is classed as in vivo, mouse. As for the experimental part:
Latent Effects of HPR on Arresting A2E Accumulation —One feature identified during the HPR trials was a therapeutic latency effect following withdrawal of HPR. In these studies, chronic treatment of abca4 −/− mice (10 mg HPR/kg, i.p.) was stopped after 28 days. A2E levels were then measured 12, 28 and 42 days following the final HPR dose. […] This effect was not observed in animals treated with 13-cis retinoic acid, a result that may be due to the capacity of RPE cells to adapt to, and maintain, low steady-state retinoid levels. […] These findings indicate that high steady-state levels of competitive inhibitors such as 13-cis retinoic acid must be maintained for therapeutic efficacy.

Another data set has as its system abcr null mutant mice. The data set can be described thus: Lipofuscin autofluorescence in RPE and light microscopy of retina. The data set is classed as in vivo, mouse.
The conditions of data set [5]: in vivo; cited from earlier work.
Data set [6] addresses interaction of TTR with RBP (Homo sapiens, UniProt P02753). To be noted: in vitro; cited from earlier work.

Molecules are shown by their SMILES. Entries after “also recorded” stand apart in the source; their conditions may differ.

Consider `CC1=C(/C=C/C(C)=C/C=C/C(C)=C/C(=O)Nc2ccc(O)cc2)C(C)(C)CCC1` [HPR, N-(4-hydroxyphenyl)retinamide], for which the “competitive binding of HPR to RBP” value on RBP is “dose-dependent and saturable”. Besides, the “displacement of retinol from RBP-retinol holoprotein” value on RBP (physiological temperature (37C), protein (340 nm) and retinol (470 nm) fluorescence) is listed as “efficiently displaces retinol”. Also, the “effect on serum retinol (in words)” value with abca4 null mutant mice was “profound reductions”; in the data set on abca4 null mutant mice (listed as Fenretinide) it was “potently and reversibly reduces”; with abca4 null mutant mice (listed as fenretinide), “lowered serum retinol levels”. The compound also had a serum retinol reduction with abca4 null mutant mice (HPR 2.5 mg/kg daily, 28 days) of 20%. Further, the “reduction of RBP-retinol in the circulation” value with abca4 null mutant mice (HPR 10 mg/kg daily, 28 days) is listed as around 50%. The “effect on steady-state retinal levels or regeneration of visual chromophore” value with abca4 −/− mice [1] was “essentially no effect”. The concentration at 28 days in data set [2] was around 10 µM. For the same compound, the “removal of bleached photoproduct” value in the data set with abca4 −/− mice [3] (HPR 10 mg/kg) is on record as “not affected”. Further, the “regeneration of visual chromophore (rate of rhodopsin regeneration)” value with abca4 −/− mice [3] (HPR 10 mg/kg daily) is given as “not affected; also recorded: does not affect; also recorded: normal”. The “calculated time constant to fully regenerate visual chromophore” value in the data set on abca4 −/− mice [3] (HPR 10 mg/kg, nearly identical for DMSO) is given as 0.37 h. Also, the “A2E levels after withdrawal (therapeutic latency effect)” value in the data set on abca4 −/− mice [4] was “remained persistently low for several weeks”. For the same compound, the “lipofuscin autofluorescence in the RPE” value with abcr null mutant mice (HPR daily for 28 days) is on record as “significantly reduces; also recorded: less than that of an age-matched wild-type animal”. For the same compound, the “retinal morphology (light microscopy)” value in the data set with abcr null mutant mice (HPR-treated animals) is given as “no aberrant morphology”. Also, the “effect on serum retinol and RBP” value in [5] was “reductions in serum retinol and RBP; also recorded: profound reductions”. The “effect on interaction of TTR with RBP” value in data set [6] is “interferes with the normal interaction of TTR with RBP”.
